Tests used:
Assay type in all cases: cell-based
[1] = tested on: c-GMP in slices of thoracic aorta of rats; experiment: Cyclic-GMP measurement in aortic rat tissue (radioimmunoassay); conditions: for levels of cGMP as compared with GTN: isolated rat aorta, FIGS. 25, 27, 33; for cGMP Post-infusion: rat aorta, post-infusion (repeated treatment)
Protocol: GTN (10^−6 M) was added to the chamber and, 1 minute after exposure to the drug, rings (usually 3-5) were taken, wrapped with aluminum foil and immediately frozen in liquid nitrogen for storage. Control sample group was treated with the vehicle solution only. At the time of analysis, rings were thawed, blotted over a dry gauzed and weighted. A known weight of tissue was homogenized in 2 ml ice-cold modified Hank's balanced salt solution containing (in gram/liter) NaCl 8; KCl 0.4; glucose 1; KH2PO4 0.06; Na2HPO4 0.047; Phenol red 0.017 and further containing 25 mM EDTA (disodium salt). The homogenate was centrifuged at 4000 g (force units) for 10 minutes at 2-4° C. and the supernatant was thereafter transferred into fresh pre-cooled test tube containing 1 ml of acetonitrile. The tubes were vortex mixed for a few seconds and subsequently centrifuged at 4000 g for 5 minutes at 2-4° C., to remove the precipitated protein. Each supernatant was transferred into a clean test tube and evaporated to dryness under a stream of nitrogen at 55° C. The dry residue was reconstituted with 10 volumes of Tris-EDTA buffer pH 7.5 (0.05 M Tris containing 4 mM EDTA). Aliquots of 100 μl of the reconstituted solution in duplicate were used for c-GMP measurements using Amersham RIA kit, as is described in Haj-Yehia & Benet [Pharmacology, 1995, 273, 1, pp. 94-100]. Standard curves were plotted with six concentrations (0, 0.5, 1, 2, 4 and 8 pmoles of c-GMP per tube).
The NO-tolerance effect of GTN and NO-donor compounds according to the present invention was measured by following the production of c-GMP in slices of thoracic aorta of rats. Thus, the production of c-GMP was measured as described in the methods section above for the reference NO-donor compound GTN, and for the NO-donors of the present invention Pet-2, Pet-3, Pet-7, Pet-8, Pet-10, Pet-12, Pet-24, Pet-59, Pet-147, Pet-149, Pet-152, Pet-154 and Pet-155.

isolated rat aorta [2] = experiment: In vitro induction of tolerance to NO releasing compounds (vasorelaxation of pre-exposed aortic rings, incl. cross-tolerance); conditions: rat aorta pre-treated with epinephrine and then 0.44 mM of the compound
Protocol: Aortic rings were prepared as described hereinabove, and were exposed to 0.44 mM GTN (vehicle was water:ethanol:propyleneglycol at proportional ratio of 1:1:1) for 1 hour before CCRC construction, to thereby induce tolerance to nitroglycerine. At the end of the tolerance induction period, rings were thrice washed with the path buffer (Krebs-bicrbonate) every 15 minutes for the following hour and then CCRC for vasorelaxation on GTN-induced tolerance rings were constructed for GTN (pretreated versus untreated rings, FIG. 15), in order to verify the ability to induce and measure GTN tolerance induction in vitro
Attempted induction of tolerance to the NO-donating compounds of the present invention was performed under the same conditions as for GTN. Thus, in an exemplary experiment, rings were exposed to 0.44 mM solution of Pet-3 in the attempt to induce tolerance for Pet-3. CCRC were then measured for the vasorelaxing effect of Pet-3 on a group of rings which were pre-exposed to Pet-3 as to induce tolerance to Pet-3, and for an untreated control group. The above protocol was repeated with Pet-2, Pet-7, Pet-8, Pet-12, Pet-24, Pet-43, Pet-149 and Pet-152.
Cross-tolerance studies were conducted using the same technique described above for measuring vasorelaxation of aortic rings from rats. Two groups of aortic rings samples were pre-treated with GTN, then one group was measured for vasorelaxation by GTN and the second group for vasorelaxation by Pet-12, an exemplary NO-donor according to the present invention. For the opposite cross-tolerance studies, two groups of aortic rings samples were pre-treated with Pet-12, then one group was measured for vasorelaxation by GTN and the second group for vasorelaxation by Pet-12.

isolated rat aorta [3] = experiment: In vitro vasorelaxation, cumulative concentration-response curves on rat aortic rings contracted with epinephrine; conditions: isolated rat aorta pre-treated with 1 μM epinephrine
Description: Male Sprague Dawley rats were anaesthetized using intraperitoneal injection of ketamine and xylazine (50 and 10 milligram per kilogram, respectively) and the thoracic aorta, the large upper portion of the descending aorta, starting at the caudal border of the chest bone, was removed thereafter, while carefully removing the paraadventetial tissue surrounding the vessel. Aortae were cut into rings of 4-5 millimeters and mounted onto the tissue path. The path buffer (Krebs-bicrbonate) was constantly gassed with carbogen and maintained at 37° C. The rings were preloaded under 2 g tension and equilibrated for 90 minutes, while refreshing the buffer every 15 minutes. After stabilization, the rings were contracted with epinephrine (1 μM). Cumulative Concentration-Response Curves (CCRC) were measured for the vasorelaxing effect induced by adding various concentrations, ranging from 10^−10 M to 10^−5 M of Pet-2, Pet-3, Pet-7, Pet-8, Pet-12, Pet-24, Pet-43, Pet-59, Pet-147, Pet-152 and Pet-154, and glyceryltrinitrate (GTN), according to the procedure described in Feelich et al., Molecular Pharmacology, 56:243-253 (1999). The vehicle, which was used for this experiment was water:ethanol:propyleneglycol at proportional ratio of 1:1:1.
The vasorelaxing effect of the thiazole-derived NO-donors according to the present invention was measured on slices of thoracic aorta of rats contracted with epinephrine, as described hereinabove.
The obtained results for Pet-2, Pet-3, Pet-7, Pet-8, Pet-12, Pet-24, Pet-43, Pet-59, Pet-147, Pet-152 and Pet-154 are presented in FIGS. 2-14, and are summarized in Table 3 below.

| Compound | levels of cGMP as compared with GTN [1] | cGMP Post-infusion [1] | tolerance induction after pre-treatment with the same compound (isolated rat aorta [2]) | vasorelaxation effect as compared with glyceryltrinitrate (words) (isolated rat aorta [3]) |
| --- | --- | --- | --- | --- |
| Cc1nc(Nc2cccc3ccccc23)sc1CCO[N+](=O)[O-] [Pet-149, [4-Methyl-5-(2-nitrooxy-ethyl)-thiazol-2-yl]-naphthalen-1-yl-amine] | increased levels of cGMP | 115 ± 14 pmol/g tissue | absence of tolerance induction | superior vasorelaxation effect |
| CCNc1nc(C)c(CCO[N+](=O)[O-])s1 [Pet-147, Ethyl-[4-methyl-5-(2-nitrooxy-ethyl)-thiazol-2-yl]-amine] | increased levels of cGMP |  |  |  |
| Cc1nc(NC(=O)c2cccnc2)sc1CCO[N+](=O)[O-] [Pet-154, N-[4-methyl-5-(2-nitrooxy-ethyl)-thiazol-2-yl]-nicotinamide] | increased levels of cGMP |  |  |  |
| C=CCNc1nc(C)c(CCO[N+](=O)[O-])s1 [Pet-155, allyl-[4-methyl-5-(2-nitrooxy-ethyl)-thiazol-2-yl]-amine] | increased levels of cGMP |  |  | superior vasorelaxation effect |
| Cc1nc(N)sc1CCO[N+](=O)[O-] [Pet-10, 4-methyl-5-(2-nitrooxy-ethyl)-thiazole-2-ylamine] | increased levels of cGMP |  |  |  |
| Cc1nc(-c2ccccc2)sc1CCO[N+](=O)[O-] [Pet-8, 4-Methyl-5-(2-nitrooxy-ethyl)-2-phenyl-thiazole] | increased levels of cGMP | 136 ± 12 pmol/g tissue |  | superior vasorelaxation effect |
| Cc1nc(-c2ccc(C(F)(F)F)cc2)sc1CCO[N+](=O)[O-] [Pet-59, 4-Methyl-5-(2-nitrooxy-ethyl)-2-(4-trifluoromethyl-phenyl)-thiazole] | increased levels of cGMP |  |  | superior vasorelaxation effect |
| Cc1nc(NC(=O)[C@@H](C)c2ccc(CC(C)C)cc2)sc1CCO[N+](=O)[O-] (stereo in doubt) [Pet-152, 2-(4-Isobutyl-phenyl)-N-[4-methyl-5-(2-nitrooxy-ethyl)-thiazol-2-yl]-propionamide] | increased levels of cGMP |  |  | superior vasorelaxation effect |
| CNc1cncc(-c2nc(C)c(CCO[N+](=O)[O-])s2)n1 [Pet-24, Methyl-{6-[4-methyl-5-(2-nitrooxy-ethyl)-thiazol-2-yl]-pyrazin-2-yl}-amine] | increased levels of cGMP | 112 ± 10 pmol/g tissue | absence of tolerance induction |  |
| Cc1nc(Nc2nc(C)c(CCO[N+](=O)[O-])s2)sc1CCO[N+](=O)[O-] [Pet-43, Bis-[4-methyl-5-(2-nitrooxy-ethyl)-thiazol-2-yl]-amine] |  |  | absence of tolerance induction | superior vasorelaxation effect |
| Cc1nc(C)c(CCO[N+](=O)[O-])s1 [Pet-3, 2,4-Dimethyl-5-(2-nitrooxy-ethyl)-thiazole] | increased levels of cGMP | 118 ± 10 pmol/g tissue | absence of tolerance induction | superior vasorelaxation effect |

Reference: US7332513B2, “Thiazole-based nitric oxide donors having acyl substituent(s) and uses thereof” (priority 2004, dated 2008)
